In US7608281B2, “Composition and use of RAR antagonists for promoting chondrogenesis” (T. Michael Underhill, priority 1999, dated 2009):
Entries after “also recorded” stand apart in the source; their conditions may differ.

B1: Noggin: purified Xenopus noggin protein, secreted inhibitor of BMP-2 and -4 (protein, UniProt P49011 20-222, looked up)
Noggin: RIDQGGCQHYLHIRPAPSENLPLVDLIEHPDPIYDPKEKDLNETLLRTLMVGHFDPNFMATILPEERLGVEDLGELDLLLRQKPSGAMPAEIKGLEFYEGLQSKKHRLSKKLRRKLQMWLWSQTFCPVLYTWNDLGTRFWPRYVKVGSCYSKRSCSVPEGMVCKAAKSMHLTILRWRCQRRVQQKCAWITIQYPVISECKCSC

Tests used:
RARγ = molecular target: T1, RARγ (Homo sapiens, UniProt P13631); test: Transient transfection: inhibition of all-trans RA induction of RARE luciferase construct in P19 cells, RARγ; assay type: cell-based; conditions: 1 μM AGN194301, 100 nM all-trans RA
T1 construct: expressed in transfected cells; host or cells: P19 embryonal carcinoma cells
T1 sequence (P13631 1-454): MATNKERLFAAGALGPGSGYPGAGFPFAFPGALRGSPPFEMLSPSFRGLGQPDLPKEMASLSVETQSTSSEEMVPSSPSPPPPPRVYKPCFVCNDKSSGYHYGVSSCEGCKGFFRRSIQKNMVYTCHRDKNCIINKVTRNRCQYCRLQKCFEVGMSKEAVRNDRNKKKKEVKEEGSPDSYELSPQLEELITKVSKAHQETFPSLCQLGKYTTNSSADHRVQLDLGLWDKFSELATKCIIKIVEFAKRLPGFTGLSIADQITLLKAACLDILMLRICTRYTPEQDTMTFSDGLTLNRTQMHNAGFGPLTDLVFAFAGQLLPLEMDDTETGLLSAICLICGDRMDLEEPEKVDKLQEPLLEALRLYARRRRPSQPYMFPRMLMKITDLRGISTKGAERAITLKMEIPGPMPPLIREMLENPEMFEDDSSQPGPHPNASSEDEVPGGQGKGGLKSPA
Method: (§1) The ability of AGN194301 to inhibit all-trans RA induction of an RARE containing luciferase construct was performed in P19 embryonal carcinoma cells as previously described with some modification (Underhill et al. (1994) Mol. Endo. 8, 274-285). P19 cells were seeded at a density of 1.5×10^4 cells/well in 6 well plates. […] Following transfection cells were washed and fresh media was added that contained 1×10^−7 M all-trans RA and various amounts of AGN194301. Twenty-four hours later cell extracts were prepared, and luciferase and β-galactosidase activity measured. Luciferase activity was normalized with β-galactosidase activity to control for differences in transfection efficiency.
(§2) RAR activity as used herein refers to the level of RA-induced transcriptional activity of the RARs. Micromass cultures were treated with the RARα-specific antagonist AGN194301 to examine whether inhibition of RARα activity stimulated cartilage formation. Addition of 1 μM AGN194301 to wild-type micromass cultures lead to a dramatic increase in nodule number with no apparent increase in nodule size as compared to untreated control cultures (FIG. 5G, J, M). […] To confirm that the concentrations utilized in these experiments inhibited RARα activity specifically, the level of RARα, RARβ and RARγ mediated RARE activation was measured with 100 nM all-trans RA in the presence of various concentrations of antagonist. […]

RARβ = molecular target: T2, RARβ (Homo sapiens, UniProt P10826); test: Transient transfection: inhibition of all-trans RA induction of RARE luciferase construct in P19 cells, RARβ; assay type: cell-based; conditions: 1 μM AGN194301, 100 nM all-trans RA
T2 construct: expressed in transfected cells; host or cells: P19 embryonal carcinoma cells
T2 sequence (P10826 1-455): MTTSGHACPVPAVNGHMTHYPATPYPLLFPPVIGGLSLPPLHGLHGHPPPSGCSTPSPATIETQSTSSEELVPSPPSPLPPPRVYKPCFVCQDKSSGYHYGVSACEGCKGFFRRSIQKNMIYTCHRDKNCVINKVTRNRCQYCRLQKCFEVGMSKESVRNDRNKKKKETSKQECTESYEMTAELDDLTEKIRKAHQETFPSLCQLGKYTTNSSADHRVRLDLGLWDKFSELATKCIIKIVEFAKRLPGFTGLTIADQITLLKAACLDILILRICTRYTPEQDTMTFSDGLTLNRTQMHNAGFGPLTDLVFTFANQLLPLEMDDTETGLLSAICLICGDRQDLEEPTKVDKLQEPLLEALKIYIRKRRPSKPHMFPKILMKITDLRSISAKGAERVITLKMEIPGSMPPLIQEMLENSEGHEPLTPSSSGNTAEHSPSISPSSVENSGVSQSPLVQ
Method: as §1, §2

[1] = system: wild-type limb mesenchyme micromass cultures; test: Cartilage nodule formation in wild-type limb bud micromass cultures (alcian blue staining); assay type: cell-based, murine
Method: Micromass cultures were prepared from murine E11.25 to E11.75 fore and hind limb buds as previously described with the following modifications (Cash et al. (1997) J. Cell Biol. 136, 445-457). After proteolytic digestion cells were filtered through a Cell Sieve ([…], Falcon) to obtain a single cell suspension. Culture media (40% Dulbecco's modified Eagle's medium, 60% F12 was supplemented with fetal bovine serum to 10%, Gibco-BRL) was changed daily. […] Addition/removal experiments included either adding or removing supplemented media on the indicated culture day, 24 hours after culture initiation was considered day 1. To detect transgene-expressing cells, cultures were fixed stained as previously described, with magenta-gal (BioSynth International Inc.) being substituted for X-gal. This was followed by alcian blue staining for cartilage-specific glycosaminoglycans. Alcian blue staining of magenta-gal stained cultures turned the red precipitate to a purple color, this is a result of incubating magenta-gal stained cells at pH 1. This double-staining technique enables transgene-expressing cells to be localized with respect to alcian blue stained cartilage nodules.

RARα = molecular target: T3, RARα (Homo sapiens, UniProt P10276); test: Transient transfection: inhibition of all-trans RA induction of RARE luciferase construct in P19 cells, RARα; assay type: cell-based; conditions: 1 μM AGN194301, 100 nM all-trans RA
T3 construct: expressed in transfected cells; host or cells: P19 embryonal carcinoma cells
T3 sequence (P10276 1-462): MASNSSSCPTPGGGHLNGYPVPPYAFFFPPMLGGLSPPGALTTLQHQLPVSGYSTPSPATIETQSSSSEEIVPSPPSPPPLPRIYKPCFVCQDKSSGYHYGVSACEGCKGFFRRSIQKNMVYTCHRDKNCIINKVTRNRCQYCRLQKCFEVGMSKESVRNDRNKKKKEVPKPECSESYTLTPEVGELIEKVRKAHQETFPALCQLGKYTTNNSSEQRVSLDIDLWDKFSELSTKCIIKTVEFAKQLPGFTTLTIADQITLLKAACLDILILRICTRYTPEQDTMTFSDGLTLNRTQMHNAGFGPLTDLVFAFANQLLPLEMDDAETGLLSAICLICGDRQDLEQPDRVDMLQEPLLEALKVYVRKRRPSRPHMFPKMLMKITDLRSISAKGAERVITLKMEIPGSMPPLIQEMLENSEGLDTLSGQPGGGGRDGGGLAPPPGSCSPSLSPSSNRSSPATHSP
Method: as §1, §2

Row | Molecule | RARγ signaling (RARE activation) remaining (RARγ) | RARβ signaling (RARE activation) remaining (RARβ) | rescue of cartilage nodule formation in Noggin-treated cultures ([1]; 1 μM AGN194301 + 10 ng/ml Noggin, day 6) | increase in number of cartilage nodules (more nodules than untreated cultures) ([1]; 1 μM AGN194301, 8 days in culture, wild-type cultures, FIG. 5M) [%] | RARα signaling (RARE activation) remaining (RARα) | reduction of cartilage nodule formation in comparison to untreated controls ([1]; 10 ng/ml Noggin, wild-type cultures) [%] | number of cartilage nodules relative to control cultures ([1]; Noggin alone 10 ng/ml, FIG. 6d)
1 | Cc1ccc(C2=CC(C)(C)Oc3c(Br)cc(C(=O)Nc4ccc(C(=O)O)c(F)c4)cc32)cc1 [AGN194301, 2-Fluoro-4-[(1-(8-bromo-2,2-dimethyl-4-(4-methylphenyl)-2-H-chromen-6-yl)-methanoyl)-amino]-benzoic acid] | ~26 % of controls | ~18 % of controls | resembled untreated cultures; also recorded: comparable to that of control cultures | 60 | ~0.3 % of controls | – | –
2 | B1 | – | – | – | – | – | ~84 | ~10 % of that of control cultures
